These results are taken from patent publication US12110276B2 (Genentech, Inc., priority 2021, dated 2024).

One test concerns the target TEAD1 (Homo sapiens (Human), UniProt P28347). Put plainly: TR-FRET lipid pocket probe competition assay (Lipid HTRF), TEAD1.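 Note: His-tagged TEAD1 with biotinylated probe, detected via Europium anti-His and XL665 streptavidin, probe displacement lowers TR-FRET signal, IC50 from four-parameter nonlinear fit.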 The following applies: 4 hours pre-incubation; read-out: Lipid HTRF TEAD1 IC50. The test is classed as binding. On the technique in general: TR-FRET usually uses a lanthanide donor and a delayed reading to cut background.
The target in a further test is TEAD3 (Homo sapiens (Human), UniProt Q99594). Put plainly: TR-FRET lipid pocket probe competition assay (Lipid HTRF), TEAD3. The conditions noted are these: 4 hours pre-incubation; read-out: Lipid HTRF TEAD3 IC50. The test is classed as binding.
TEAD3, sequence (Q99594 whole entry, species assumed): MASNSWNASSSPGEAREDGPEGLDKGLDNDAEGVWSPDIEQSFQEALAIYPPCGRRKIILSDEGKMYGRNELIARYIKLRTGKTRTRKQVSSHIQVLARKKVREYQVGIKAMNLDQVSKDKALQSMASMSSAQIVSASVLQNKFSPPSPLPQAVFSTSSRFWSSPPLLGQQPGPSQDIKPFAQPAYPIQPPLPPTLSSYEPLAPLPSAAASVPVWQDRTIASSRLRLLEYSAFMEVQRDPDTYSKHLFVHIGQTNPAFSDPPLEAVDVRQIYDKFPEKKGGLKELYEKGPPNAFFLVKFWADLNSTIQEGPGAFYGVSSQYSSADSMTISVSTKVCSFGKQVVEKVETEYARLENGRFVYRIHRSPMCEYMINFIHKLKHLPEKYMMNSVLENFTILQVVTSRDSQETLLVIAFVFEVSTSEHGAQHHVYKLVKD
The next test deals with TEAD2 (Homo sapiens (Human), UniProt Q15562).
TEAD2, sequence (Q15562 whole entry, species assumed): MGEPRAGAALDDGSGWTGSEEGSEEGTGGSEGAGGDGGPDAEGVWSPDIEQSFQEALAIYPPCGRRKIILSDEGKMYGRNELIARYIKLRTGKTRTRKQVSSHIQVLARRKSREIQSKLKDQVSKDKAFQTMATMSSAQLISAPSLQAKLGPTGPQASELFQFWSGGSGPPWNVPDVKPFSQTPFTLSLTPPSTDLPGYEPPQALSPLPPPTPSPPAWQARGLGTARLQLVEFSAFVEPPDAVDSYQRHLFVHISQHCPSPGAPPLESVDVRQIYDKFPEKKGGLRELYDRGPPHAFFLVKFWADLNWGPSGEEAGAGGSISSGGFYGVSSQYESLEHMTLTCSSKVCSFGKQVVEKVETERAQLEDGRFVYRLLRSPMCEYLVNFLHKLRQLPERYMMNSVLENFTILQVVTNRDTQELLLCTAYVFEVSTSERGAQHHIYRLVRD
In the next test the target is TEAD4 (Homo sapiens (Human), UniProt Q15561). Put plainly: TR-FRET lipid pocket probe competition assay (Lipid HTRF), TEAD4.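 Note: His-tagged TEAD4 with biotinylated lipid-pocket probe, read by Europium anti-His and XL665 streptavidin, where probe displacement lowers the TR-FRET signal, IC50 from a four-parameter fit.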 The test is classed as binding. The following applies: 4 hours pre-incubation; read-out: Lipid HTRF TEAD4 IC50.
TEAD4, sequence (Q15561 whole entry, species assumed): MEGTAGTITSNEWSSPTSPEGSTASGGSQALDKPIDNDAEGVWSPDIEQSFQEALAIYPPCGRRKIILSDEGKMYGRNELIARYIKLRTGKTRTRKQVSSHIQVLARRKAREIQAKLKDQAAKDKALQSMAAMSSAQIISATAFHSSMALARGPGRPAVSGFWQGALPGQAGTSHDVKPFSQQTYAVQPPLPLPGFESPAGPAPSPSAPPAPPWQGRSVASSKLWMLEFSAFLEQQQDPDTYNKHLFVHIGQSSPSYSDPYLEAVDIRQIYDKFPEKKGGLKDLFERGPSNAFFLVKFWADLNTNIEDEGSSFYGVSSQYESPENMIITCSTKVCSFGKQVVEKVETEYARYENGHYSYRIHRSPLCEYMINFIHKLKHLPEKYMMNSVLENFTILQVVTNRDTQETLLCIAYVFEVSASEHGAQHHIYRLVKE

TEAD1, sequence (P28347 whole entry, species assumed): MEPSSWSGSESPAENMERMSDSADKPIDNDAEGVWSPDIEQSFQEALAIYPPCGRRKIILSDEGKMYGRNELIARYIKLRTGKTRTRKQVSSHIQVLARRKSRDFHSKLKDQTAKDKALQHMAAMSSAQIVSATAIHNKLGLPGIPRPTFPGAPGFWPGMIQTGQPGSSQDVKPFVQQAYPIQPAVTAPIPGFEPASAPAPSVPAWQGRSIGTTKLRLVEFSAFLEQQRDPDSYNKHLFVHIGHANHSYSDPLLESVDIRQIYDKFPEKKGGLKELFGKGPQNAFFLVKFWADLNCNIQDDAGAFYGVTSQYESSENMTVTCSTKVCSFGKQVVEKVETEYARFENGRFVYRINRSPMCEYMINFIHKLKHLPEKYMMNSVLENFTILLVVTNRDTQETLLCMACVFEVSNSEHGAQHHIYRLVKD
Protocol for TEAD2: His-tagged TEAD proteins are pre-incubated with TEAD project compounds for 30 minutes or 4 hours at room temperature. Biotinylated lipid pocket probes are then added to the TEAD/Compound mixture and incubated for 60 minutes at room temperature. The lipid pocket probe competes with the test compound for the TEAD lipid pocket until equilibrium is reached. After 60 minutes, Europium labelled anti-His (Perkin Elmer #AD0110) and XL665 labelled streptavidin (CIS Bio 610SAXAC) are added to the TEAD/test compound/lipid pocket mixture and incubated for 30 minutes or 4 hours. TR-FRET values are then measured using an EnVision multi-label plate reader (Perkin Elmer Cat #2104-0010A.) If the lipid pocket probe binds to TEAD as expected, a TR-FRET signal results from the proximity of anti-His Eu and XL665. If a TEAD lipid pocket binder such as binds and displaces the lipid pocket probe, the disruption of the TEAD:probe interaction results in a decrease in TR-FRET signal. The potency of compounds as TEAD lipid pocket binders is determined by IC50 value generated using a non-linear 4 parameter curve fit.
Protocol for TEAD4: His-tagged TEAD proteins are pre-incubated with TEAD project compounds for 30 minutes or 4 hours at room temperature. Biotinylated lipid pocket probes are then added to the TEAD/Compound mixture and incubated for 60 minutes at room temperature. The lipid pocket probe competes with the test compound for the TEAD lipid pocket until equilibrium is reached. After 60 minutes, Europium labelled anti-His (Perkin Elmer #AD0110) and XL665 labelled streptavidin (CIS Bio 610SAXAC) are added to the TEAD/test compound/lipid pocket mixture and incubated for 30 minutes or 4 hours. […] If a TEAD lipid pocket binder such as binds and displaces the lipid pocket probe, the disruption of the TEAD:probe interaction results in a decrease in TR-FRET signal. The potency of compounds as TEAD lipid pocket binders is determined by IC50 value generated using a non-linear 4 parameter curve fit.

Turning to `C=C(C)C(=O)N1CC(c2nn(-c3ccc(OC(F)(F)F)cc3)c3nccc(CO)c23)C1` [Compound 22, 1-(3-(4-(Hydroxymethyl)-1-(4-(trifluoromethoxy)phenyl)-1H-pyrazolo[3,4-b]pyridin-3-yl)azetidin-1-yl)-2-methylprop-2-en-1-one], the IC50 stood at 33 nM at TEAD1, 300 nM at TEAD3 and 250 nM against TEAD2.
Take `O=C(NCc1nn(-c2ccc(OC(F)(F)F)cc2)c2nccc(CO)c12)C1=CCOC1` [Compound 149, N-((4-(Hydroxymethyl)-1-(4-(trifluoromethoxy)phenyl)-1H-pyrazolo[3,4-b]pyridin-3-yl)methyl)-2,5-dihydrofuran-3-carboxamide]: the half-maximal inhibitory concentration (IC50) at TEAD1 stood at 910 nM.
Turning to `CC#CC(=O)NCc1nn(-c2ccc(OC(F)(F)F)cc2)c2nccc(CO)c12` [Compound 98, N-((4-(Hydroxymethyl)-1-(4-(trifluoromethoxy)phenyl)-1H-pyrazolo[3,4-b]pyridin-3-yl)methyl)but-2-ynamide], the concentration for half-maximal inhibition (IC50) was determined as 32 nM on TEAD1, 460 nM at TEAD3 and 75 nM against TEAD2.
At TEAD2, `C/C=C/S(=O)(=O)N1CC(c2nn(-c3ccc(OC(F)(F)F)cc3)c3nccc([C@H](O)CO)c23)C1` [Compound 161, (S,E)-1-(3-(1-(Prop-1-en-1-ylsulfonyl)azetidin-3-yl)-1-(4-(trifluoromethoxy)phenyl)-1H-pyrazolo[3,4-b]pyridin-4-yl)ethane-1,2-diol] returned an IC50 of 3.4 nM.
As to `O=C(C1=CCC1)N1CC(c2nn(-c3ccc(OC(F)(F)F)cc3)c3nccc([C@@H](O)CO)c23)C1` [Compound 115, (R)-cyclobut-1-en-1-yl(3-(4-(1,2-dihydroxyethyl)-1-(4-(trifluoromethoxy)phenyl)-1H-pyrazolo[3,4-b]pyridin-3-yl)azetidin-1-yl)methanone], the figures for the IC50 at TEAD3 and against TEAD2 were 11 nM and 6 nM, respectively.
The corresponding values for `O=C(C1=CCC1)N1CC(c2nn(-c3ccc(OC(F)(F)F)cc3)c3nccc([C@@H](O)CO)c23)C1` [Compound 157, (R)-Cyclobut-1-en-1-yl(3-(4-(1,2-dihydroxyethyl)-1-(4-(trifluoromethoxy)phenyl)-1H-pyrazolo[3,4-b]pyridin-3-yl)azetidin-1-yl)methanone] are 17 nM and 5.7 nM.
Turning to `O=C(C1=CCC1)N1CC(c2nn(-c3ccc(OC(F)(F)F)cc3)c3nccc([C@H](O)CO)c23)C1` [Compound 72, (S)-Cyclobut-1-en-1-yl(3-(4-(1,2-dihydroxyethyl)-1-(4-(trifluoromethoxy)phenyl)-1H-pyrazolo[3,4-b]pyridin-3-yl)azetidin-1-yl)methanone], the IC50 on TEAD3 is 19 nM; at TEAD2, 7.5 nM.
With `C=CC(=O)NCc1nn(-c2ccc(OC(F)(F)F)cc2)c2nccc(N(C)[C@H]3C[C@@H](O)C3)c12` [Compound 117, N-((4-((3-hydroxycyclobutyl)(methyl)amino)-1-(4-(trifluoromethoxy)phenyl)-1H-pyrazolo[3,4-b]pyridin-3-yl)methyl)acrylamide], the IC50 on TEAD3 is 16000 nM; on TEAD4 it was 33 nM.
For `C=CC(=O)NCc1nn(-c2ccc(OC(F)(F)F)cc2)c2nccc([C@H](O)COP(=O)(O)O)c12` [Compound 147, (S)-2-(3-(Acrylamidomethyl)-1-(4-(trifluoromethoxy)phenyl)-1H-pyrazolo[3,4-b]pyridin-4-yl)-2-hydroxyethyl dihydrogen phosphate], the IC50 at TEAD4 amounted to 36000 nM.
As for `O=C(/C=C/CO)N1CC(c2nn(-c3ccc(OC(F)(F)F)cc3)c3nccc(CO)c23)C1` [Compound 94, (E)-4-Hydroxy-1-(3-(4-(hydroxymethyl)-1-(4-(trifluoromethoxy)phenyl)-1H-pyrazolo[3,4-b]pyridin-3-yl)azetidin-1-yl)but-2-en-1-one], the IC50 at TEAD1 was determined as 15 nM; against TEAD2 it was 29 nM.
As to `O=C(/C=C/CO)N1CC(c2nn(-c3ccc(OC(F)(F)F)cc3)c3nccc([C@H](O)CO)c23)C1` [Compound 108, (S,E)-1-(3-(4-(1,2-Dihydroxyethyl)-1-(4-(trifluoromethoxy)phenyl)-1H-pyrazolo[3,4-b]pyridin-3-yl)azetidin-1-yl)-4-hydroxybut-2-en-1-one], the IC50 at TEAD3 turned out to be 140 nM; at TEAD2, 120 nM.
Turning to `C=CC(=O)NCc1nn(-c2ccc(OC(F)(F)F)cc2)c2nccc(N3CC([C@H](C)O)C3)c12` (stereo in doubt) [Compound 138, N-((4-(3-(1-hydroxyethyl)azetidin-1-yl)-1-(4-(trifluoromethoxy)phenyl)-1H-pyrazolo[3,4-b]pyridin-3-yl)methyl)acrylamide], at TEAD2, the IC50 stood at 290 nM.
For `C/C=C/S(=O)(=O)N1CC(c2nn(-c3ccc(OC(F)(F)F)cc3)c3nccc([C@@H](O)CO)c23)C1` [Compound 162, (R,E)-1-(3-(1-(prop-1-en-1-ylsulfonyl)azetidin-3-yl)-1-(4-(trifluoromethoxy)phenyl)-1H-pyrazolo[3,4-b]pyridin-4-yl)ethane-1,2-diol], the IC50 against TEAD2 was found to be 10 nM.
Consider `O=C(/C=C/CF)NCc1nn(-c2ccc(OC(F)(F)F)cc2)c2nccc(CO)c12` [Compound 121, (E)-4-Fluoro-N-((4-(hydroxymethyl)-1-(4-(trifluoromethoxy)phenyl)-1H-pyrazolo[3,4-b]pyridin-3-yl)methyl)but-2-enamide], for which the IC50 at TEAD1 was 21 nM; at TEAD3, 350 nM; against TEAD2, 68 nM.
In the case of `O=C(N1CC(c2nn(-c3ccc(OC(F)(F)F)cc3)c3nccc(CO)c23)C1)C12CC1C2` (stereo not drawn) [Compound 153, Bicyclo[1.1.0]butan-1-yl(3-(4-(hydroxymethyl)-1-(4-(trifluoromethoxy)phenyl)-1H-pyrazolo[3,4-b]pyridin-3-yl)azetidin-1-yl)methanone], the figures for the IC50 at TEAD1, on TEAD3 and against TEAD2 were 580 nM, 50000 nM and 290 nM, respectively.
On to `C=CC(=O)NCc1nn(-c2ccc(OC(F)(F)F)cc2)c2nccc(N(C)[C@H]3C[C@H](O)C3)c12` [Compound 90, N-((4-((3-hydroxycyclobutyl)(methyl)amino)-1-(4-(trifluoromethoxy)phenyl)-1H-pyrazolo[3,4-b]pyridin-3-yl)methyl)acrylamide], for which the results for the IC50 at TEAD3 and at TEAD4 were 3700 nM and 9.9 nM, respectively.
For `C/C=C/C(=O)NCc1nn(-c2ccc(OC(F)(F)F)cc2)c2nccc(CO)c12` [Compound 61, (E)-N-((4-(Hydroxymethyl)-1-(4-(trifluoromethoxy)phenyl)-1H-pyrazolo[3,4-b]pyridin-3-yl)methyl)but-2-enamide], the figures for the IC50 on TEAD3 and against TEAD2 were 50000 nM and 2300 nM, respectively.
On to `O=C(/C=C/CO)N1CC(c2nn(-c3ccc(OC(F)(F)F)cc3)c3nccc([C@@H](O)CO)c23)C1` [Compound 95, (R,E)-1-(3-(4-(1,2-dihydroxyethyl)-1-(4-(trifluoromethoxy)phenyl)-1H-pyrazolo[3,4-b]pyridin-3-yl)azetidin-1-yl)-4-hydroxybut-2-en-1-one], for which the IC50 on TEAD3 was 92 nM; against TEAD2, 27 nM.
For the compound `C=CC(=O)NCc1nn(-c2ccc(OC(F)(F)F)cc2)c2nccc(N3CC([C@@H](C)O)C3)c12` (stereo in doubt) [Compound 123, N-((4-(3-(1-hydroxyethyl)azetidin-1-yl)-1-(4-(trifluoromethoxy)phenyl)-1H-pyrazolo[3,4-b]pyridin-3-yl)methyl)acrylamide], the IC50 against TEAD2 came out at 180 nM.

In general, IC50 refers to the concentration at which inhibition is half-maximal.
